Tested on: Maillard reaction
Assay: not given
Settings: Brownlee et al., Science, 232, 1629 (1986); cited from earlier work

| SMILES | inhibits Maillard reaction in vitro |
| --- | --- |
| N=C(N)NN [aminoguanidine] | inhibits |

Tested on: advanced glycosylation end products in arterial wall connective tissue protein
Assay: not given
Settings: administered to diabetic rats; Brownlee et al., Science, 232, 1629 (1986); cited from earlier work

| SMILES | inhibits diabetes-induced accumulation of advanced glycosylation end products in arterial wall connective tissue protein |
| --- | --- |
| N=C(N)NN [aminoguanidine] | inhibits |

Tested on: Maillard reaction
Assay: Inhibitory effect on Maillard reaction in vitro (bovine serum albumin + glucose, fluorescence)
Type: biochemical
Settings: test compound 6 mM; bovine serum albumin 100 mg/ml, glucose 200 mM, 0.5 M phosphate buffer pH 7.38, one week at 37°C; fluorescence ex 360 nm / em 450 nm
Procedure: In order to evaluate the inhibitory effect on Maillard reaction in vitro, of the compounds in the present invention, the measurement was carried out under conditions described below. Bovine serum albumin (100 mg/ml), glucose (200 mM) and test compound (6 mM, 30 mM in example 2 and 2(a)) were dissolved in 0.5 M phosphatic buffer solution (pH 7.38), and the mixture was incubated for a week at 37°C. After incubation, the incubated medium was diluted 100 times with the same phosphatic buffer solution, and the fluorescence spectrum was measured at the excitation maximum of 360nm and the emission maximum of 450 nm. Inhibition percentage of the test compounds was calculated by the following equation: [table]

| SMILES | Inhibitory effect (%) |
| --- | --- |
| CN(C(=N)NN)c1ccccc1.I [1 (o), 1-amino-3-methyl-3-phenyl guanidine hydroiodide] | 54% |
| CN(N)C(=N)NCc1ccccc1.I [1 (r), 1-amino-1-methyl-3-benzylguanidine hydroiodide] | 36% |
| N=C(N)N(N)CC1CCCC1 [2 (c), 1-amino-1-cyclopenthylmethyl guanidine] | 56% |
| COc1ccc(CNC(=N)NN)cc1.I [1 (f), 1-amino-3-(4-methoxybenzyl) guanidine hydroiodide] | 54% |
| N=C(N)N(N)CCCc1ccccc1 [2 (b), 1-amino-1-(3-phenylpropyl) guanidine] | 50% |
| Cl.N=C(NN)N1CCOCC1 [1 (v), 4-morpholinecarbohydrazide imide hydrochloride] | 36% |
| I.N=C(NN)NCc1ccc(F)cc1 [1 (e), 1-amino-3-(4-fluorobenzyl) guanidine hydroiodide] | 43% |
| I.N=C(NN)NCc1cccc([N+](=O)[O-])c1 [1 (i), 1-amino-3-(3-nitrobenzyl) guanidine hydroiodide] | 57% |
| CCCCN(CCCC)C(=N)NN [1 (g), 1-amino-3,3-n-butylguanidine hydroiodide] | 34% |
| I.N=C(NN)NCc1ccccc1 [Example 1, 1-amino-3-benzylguanidine hydroiodide] | 63% |
| I.N=C(NN)NCCc1ccccc1 [Example 1 (a), 1-amino-3-phenethylguanidine hydroiodide] | 72% |
| Cl.N=C(NN)N1CCCC1 [1 (u), 1-pyrrolidinecarbohydrazide imide hydrochloride] | 43% |
| N=C(NN)NCc1cccc2ccccc12 [1 (h), 1-amino-3-(1-naphtylmethyl) guanidine hydroiodide] | 51% |

Same assay, conditions: test compound 30 mM (example 2 and 2(a)); bovine serum albumin 100 mg/ml, glucose 200 mM, 0.5 M phosphate buffer pH 7.38, one week at 37°C; fluorescence ex 360 nm / em 450 nm

| SMILES | Inhibitory effect (%) |
| --- | --- |
| N=C(N)N(N)Cc1ccccc1 [Example 2 (a), 1-amino-1-benzylguanidine] | 50% |
| N=C(N)N(N)CCc1ccccc1 [Example 2, 1-Amino-1-phenethylguanidine] | 71% |
